The values below come from patent publication US20050277663A1, “3-Aryl-3-hydroxy-and 3-aryl-3-oxopropionic acid esters as fungicides” (priority 2004, published 2005).

For orientation: IC50 means the concentration needed to halve the response being measured.

Test [1] concerns Alternaria solani on tomato plants. The test can be described thus: Alternaria greenhouse study on tomato plants. Particulars: for control of A. solani (in words): 75 ppm rate; for Average Lesion Size: 6 days after infection.
Description: Tomato plants were inoculated with a conidial suspension (8,000 conidia/ml) of A. solani and maintained in a dew chamber for 24 hours. The plants were subsequently moved to the greenhouse for disease development.
Test [2] has as its system Erysiphe graminis on barley plants. As to the kind of experiment: Erysiphe greenhouse study on barley plants. Conditions: for Average Lesion Number: 5 days after infection.
The test system of the next test is Botrytis cinerea. As to the kind of experiment: Microtiter plate fungicidal screening (agar, spore inoculation). Type of test: cell-based. Conditions: fungal growth after 3-5 days at 20° C., C.V. class in parentheses, read-out: IC50 B. cinerea.
The test system of a further test is Phytophthora infestans. As to the kind of experiment: microbe, parasite or virus in culture. Type of test: cell-based. Particulars: for IC50: Phytophthora infestans, read-out: IC50 P. infestans.
The next test concerns Stagnospora nodorum. As to the kind of experiment: Microtiter plate fungicidal screening (agar, spore inoculation). Type of test: cell-based. Conditions: fungal growth after 3-5 days at 20° C., C.V. class in parentheses; for IC50: Parastagonospora nodorum, read-out: IC50 S. nodorum.
Another test deals with Septoria tritici. The description is as above. Type of test: cell-based. Conditions: fungal growth after 3-5 days at 20° C., C.V. class in parentheses.
The test system of the next test is U. maydis. Described as above. Type of test: cell-based, Ustilago maydis. Conditions: Mycosarcoma maydis; fungal growth after 3-5 days at 20° C.; C.V. class in parentheses.

Each structure is given as a SMILES string.

Regarding `CO/C=C(/C(=O)OC)c1ccccc1Oc1cc(Oc2ccccc2C#N)ncn1` [Azoxystrobin, azoxystrobin], the “control of A. solani (in words)” value in test [1] is “slightly less control”. Besides, the “Average Lesion Size” value in test [1] (75 ppm) and in test [1] (300 ppm) was “A (A = 0-10)” each time. Moreover, the “control of A. solani” value in test [1] (300 ppm rate) is recorded as roughly 100%.
Consider `N#Cc1c(Cl)c(Cl)c(Cl)c(C#N)c1Cl` [Chlorothalonil, chlorothalonil], for which the “control of E. graminis (in words)” value in test [2] (high rate) was “marginal level of control”. The “Average Lesion Number” value in test [2] (inoculated data set, 1250 ppm) is listed as “B (B = 51-100)”; in test [2] (inoculated data set, 5000 ppm), “D (D = +150)”; in test [2] (uninoculated data set, 1250 ppm), “B (B = 11-20)”; in test [2] (uninoculated data set, 5000 ppm), “C (C = 21-30)”. The “Average Lesion Size” value in test [1] (1250 ppm) and in test [1] (5000 ppm) was “A (A = 0-10)” each time.
Take `O=C(OCc1cccc(C(F)(F)F)c1)C(CSc1nccs1)C(O)c1cccnc1` (stereo not drawn) [Compound 5, 3-(Trifluoromethyl)phenylmethyl β-hydroxy-α-(2-thiazolylthiomethyl)-3-pyridinepropanoate]: the IC50 with Botrytis cinerea is greater than 25 µM; in the test with Phytophthora infestans, greater than 25 µM; in the test on Stagnospora nodorum, less than 5 µM; in the test with U. maydis, greater than 25 µM. Moreover, in the test with Septoria tritici, the “IC50 S. tritici” value is on record as “A (d)”.
`O=C(OCc1cccc(C(F)(F)F)c1)[C@H](c1ccccc1)[C@@H](O)c1cccnc1` [Compound 15, 3-(Trifluoromethyl)phenylmethyl syn-β-hydroxy-α-phenyl-3-pyridinepropanoate]: the IC50 in the test on Phytophthora infestans and with U. maydis was greater than 25 µM in each case. For the same compound, the “IC50 S. nodorum” value in the test on Stagnospora nodorum is “A (d)”. Further, in the test on Septoria tritici, the “IC50 S. tritici” value was “A (d)”.
For the compound `O=C(OCc1ccc(Cl)c(Cl)c1)C(CSc1nc2cccnc2s1)C(O)c1cccnc1` (stereo not drawn) [Compound 16, 3,4-Dichlorophenylmethyl β-hydroxy-α-{2-(thiazolo[5,4-b]pyridine)thiomethyl}-3-pyridinepropanoate], the IC50 in the test on Phytophthora infestans and in the test with U. maydis was greater than 25 µM in each case. Moreover, the “IC50 S. nodorum” value in the test on Stagnospora nodorum was “A (b)”. Also, the “IC50 S. tritici” value in the test on Septoria tritici is recorded as “A (c)”.
As for `O=C(OCc1cccc(C(F)(F)F)c1)C(Cc1ccco1)C(O)c1cccnc1` (stereo not drawn) [Compound 20, 3-(Trifluoromethyl)phenylmethyl β-hydroxy-α-2-furylmethyl-3-pyridinepropanoate], the IC50 was greater than 25 µM with Botrytis cinerea; greater than 25 µM with Phytophthora infestans; less than 5 µM in the test with Septoria tritici (Zymoseptoria tritici, read-out: IC50 S. tritici); greater than 25 µM with U. maydis. Besides, the “IC50 S. nodorum” value in the test on Stagnospora nodorum was “A (b)”.
In the case of `O=C(OCc1cccc(C(F)(F)F)c1)C(c1ccccc1Cl)C(O)c1cccnc1` (stereo not drawn) [Compound 21, 3-(Trifluoromethyl)phenylmethyl β-hydroxy-α-2-chlorophenyl-3-pyridinepropanoate], the IC50 in the test with Botrytis cinerea, in the test with Phytophthora infestans and with U. maydis was greater than 25 µM throughout. Further, the “IC50 S. nodorum” value in the test with Stagnospora nodorum is “A (c)”. Besides, the “IC50 S. tritici” value in the test with Septoria tritici was “A (c)”. Further, the “activity against E. graminis (in words)” value in test [2] (both rates (300 and 75 ppm), both uninoculated and inoculated tests) is “excellent activity”. Also, the “Average Lesion Number” value in test [2] (inoculated data set, 75 ppm) was “A (A = 0-50)”; in test [2] (inoculated data set, 300 ppm), “A (A = 0-50)”; in test [2] (uninoculated data set, 75 ppm), “A (A = 0-10)”; in test [2] (uninoculated data set, 300 ppm), “A (A = 0-10)”. The “control of A. solani (in words)” value in test [1] is “no control”. Besides, the “Average Lesion Size” value in test [1] (75 ppm) was “D (D = +30)”; in test [1] (300 ppm), “C (C = 21-30)”. Also, in test [1] (high rate (300 ppm), activity was not significant), the “decrease in lesion counts” value is listed as “roughly 50%”.
Consider `CC(C(=O)Oc1ccc(Cl)c(Cl)c1)C(O)c1cccnc1` (stereo not drawn) [Compound 29, 3,4-Dichlorophenyl β-hydroxy-α-methyl-3-pyridinepropanoate], for which the IC50 is greater than 25 µM in the test on Botrytis cinerea, 16 to 25 µM in the test on Stagnospora nodorum and 16 to 25 µM with U. maydis. The “IC50 P. infestans” value in the test on Phytophthora infestans (fungal growth after 3-5 days at 20° C., C.V. class in parentheses) is given as “D (d)”. The “IC50 S. tritici” value with Septoria tritici is recorded as “A (b)”.
For `CCCC1COC(Cn2cncn2)(c2ccc(Cl)cc2Cl)O1` (centres unmarked) [Propiconazole, propiconazole], in test [2] (high (75 ppm) rate), the “control of E. graminis” value was roughly 100%. The “Average Lesion Number” value in test [2] (inoculated data set, 4.7 ppm) is “A (A = 0-50)”; in test [2] (inoculated data set, 18.8 ppm), “A (A = 0-50)”; in test [2] (inoculated data set, 75 ppm), “A (A = 0-50)”; in test [2] (uninoculated data set, 5 ppm), “A (A = 0-10)”; in test [2] (uninoculated data set, 19 ppm), “A (A = 0-10)”; in test [2] (uninoculated data set, 75 ppm), “A (A = 0-10)”. Moreover, the “control of E. graminis (in words)” value in test [2] (lower rates (19 and 5 ppm)) is “excellent control”.
